# Results as given in patent publication EP2545917B1, “NOVEL EP4 AGONIST” (Kaken Pharmaceutical Co., Ltd., priority 2010, dated 2011).
# Key:
# [1] = test system: dextran sodium sulfate-induced colitis; assay: Dextran sodium sulfate-induced colitis model in mice (C57BL/6); type: in vivo; details: C57BL/6 mice, DSS, oral 0.3 mg/kg once a day
# Method: Female C57BL/6 mice (6 weeks old, Japan SLC) were purchased, acclimated for 1 week and used for the study. Except the normal group, the mice were allowed to freely drink a 3 or 2 w/v% DSS (MP Biochemicals, Lot No. 5653H and 5464H, respectively) solution for 1 week to induce colitis. BPS at a dose of 0.3 mg/kg and compound F at doses of 0.3 and 1 mg/kg were orally administered once a day, daily, from the start day of DSS drinking (day 0) to one day before autopsy (day 9). To the control group was orally administered a solvent (1 vol% ethanol solution) at 10 mL/kg in the same manner. The consistency of the stool was graded from score 0 to 4, with normal (0), partly loose stool (1), loose stool (2) and diarrhea (4). The blood feces was also graded from score 0 to 4, with normal (0), partly blood feces (1), blood feces (2) and blood feces plus proctorrhagia (4). The sum of both grades was defined as the stool score (maximum 8). Furthermore, the length of the large intestine was measured in the same manner as in Example 23. Six to 10 animals were used for each group, and the results are shown in average ± standard deviation.
# [2] = biological target: T1, Human EP2 (Homo sapiens, UniProt P43116); assay: Receptor affinity, tritium-labeled PGE2 binding to membranes of transfected COS-7 cells
# T1 construct: expressed in transfected cells; host or cells: COS-7
# Method: (§1) PG receptor affinity of compound F and compound J of the present invention was evaluated. Compound F used was one synthesized in Example 9, and compound J was prepared by separating and purifying the compound synthesized in Example 14 with a column (the same preparations were used in the following Examples). COS-7 cells were transfected with the genes of mouse EP4, human EP1-4 or human IP to overexpress the receptor and then the cell membranes were collected. […] The dissociation constant Kd value was obtained and inhibition constant Ki value of each test compound was determined in a conventional method.
# [3] = test system: Human Platelet Aggregation; assay: Inhibitory effect on ADP-induced platelet aggregation in platelet-rich plasma; type: cell-based; details: ADP 10 µmol/L, geometric mean of three volunteers
# Method: The inhibitory effect of compounds F and J, and carboxylate forms thereof on platelet aggregation was evaluated. The carboxylate forms were prepared by separating and purifying the compound synthesized in Example 15 with a column. Blood was drawn from 3 healthy volunteers using sodium citrate as an anticoagulant, and platelet-rich plasma was prepared. The platelet-rich plasma was treated with physiological saline or test compounds and, 2 min later, platelet aggregation was induced with adenosine diphosphate (ADP, final concentration 10 µmol/L) and recorded with a platelet aggregation measurement apparatus (nephelometry).
# [4] = biological target: T2, Human EP1 (Homo sapiens, UniProt P34995); assay: Receptor affinity, tritium-labeled PGE2 binding to membranes of transfected COS-7 cells
# T2 construct: expressed in transfected cells; host or cells: COS-7
# T2 sequence (P34995 1-402): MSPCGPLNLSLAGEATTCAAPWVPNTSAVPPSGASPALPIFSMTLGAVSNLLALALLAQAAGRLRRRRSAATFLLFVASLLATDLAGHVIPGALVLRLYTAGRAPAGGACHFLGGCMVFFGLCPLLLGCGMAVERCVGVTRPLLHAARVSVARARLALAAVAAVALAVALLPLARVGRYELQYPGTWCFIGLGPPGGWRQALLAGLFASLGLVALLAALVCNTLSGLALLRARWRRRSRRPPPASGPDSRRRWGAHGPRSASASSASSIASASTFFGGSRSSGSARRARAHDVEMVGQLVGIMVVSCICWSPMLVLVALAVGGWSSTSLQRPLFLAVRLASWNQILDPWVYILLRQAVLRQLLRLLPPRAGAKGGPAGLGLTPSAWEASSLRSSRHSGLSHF
# Method: (§2) PG receptor affinity of compound F and compound J of the present invention was evaluated. Compound F used was one synthesized in Example 9, and compound J was prepared by separating and purifying the compound synthesized in Example 14 with a column (the same preparations were used in the following Examples). COS-7 cells were transfected with the genes of mouse EP4, human EP1-4 or human IP to overexpress the receptor and then the cell membranes were collected. As a labeled ligand, tritium-labeled PGE2 was used for EPs; tritium-labeled iloprost, for IP. The dissociation constant Kd value was obtained and inhibition constant Ki value of each test compound was determined in a conventional method. As a reference control, PGE2 was used for EPs; beraprost sodium (BPS), for IP.
# [5] = biological target: T3, Human IP (Homo sapiens, UniProt P43119); assay: Receptor affinity, tritium-labeled iloprost binding to membranes of transfected COS-7 cells; details: COS-7 cell membranes
# T3 construct: expressed in transfected cells; host or cells: COS-7
# Method: as §2
# [6] = test system: blood pressure and heart rate; assay: Effect on blood pressure and heart rate in mice; type: in vivo, ICR mice; details: intravenous 0.01 mg/5 mL/kg, isoflurane anesthesia
# Method: Male ICR mice (5 weeks old, Japan SLC) were purchased, acclimated for 6 days and used for the test. The animals were treated and measured under isoflurane inhalation anesthesia (anesthesia introduced at 2.5%, maintained at 1.8-2.1%), while body temperature was kept at 37°C with a Heat Controller (ATC-402, Unique Medical Co., Ltd.). A catheter for administration of test compounds was inserted into the left femoral vein, and another catheter was inserted into the right femoral artery and connected to a pressure transducer to record each parameter of hemodynamics.
# Compound F, the carboxylate form of compound F and BPS were intravenously administered at a dose of 0.01 mg/5 mL/kg, and the effect on the mean blood pressure and heart rate was evaluated with computer software for the analysis of hemodynamics (Fluclet, Dainippon Sumitomo Pharma Co., Ltd.). To the control group was intravenously administered a solvent (1.2% ethanol solution) at 5 mL/kg in the same manner. The results are expressed as a ratio of change in each parameter before and after the drug administration. Three to 6 animals were used for each group, and the results were expressed as average ± standard deviation.
# [7] = biological target: T4, Human EP4 (Homo sapiens, UniProt P35408); assay: Receptor affinity, tritium-labeled PGE2 binding to membranes of transfected COS-7 cells
# T4 construct: expressed in transfected cells; host or cells: COS-7
# Method: (§3) COS-7 cells were transfected with the genes of mouse EP4, human EP1-4 or human IP to overexpress the receptor and then the cell membranes were collected. […] The dissociation constant Kd value was obtained and inhibition constant Ki value of each test compound was determined in a conventional method.
# [8] = biological target: T5, Human EP3 (Homo sapiens, UniProt P43115); assay: as above
# T5 construct: expressed in transfected cells; host or cells: COS-7
# T5 sequence (P43115 1-390): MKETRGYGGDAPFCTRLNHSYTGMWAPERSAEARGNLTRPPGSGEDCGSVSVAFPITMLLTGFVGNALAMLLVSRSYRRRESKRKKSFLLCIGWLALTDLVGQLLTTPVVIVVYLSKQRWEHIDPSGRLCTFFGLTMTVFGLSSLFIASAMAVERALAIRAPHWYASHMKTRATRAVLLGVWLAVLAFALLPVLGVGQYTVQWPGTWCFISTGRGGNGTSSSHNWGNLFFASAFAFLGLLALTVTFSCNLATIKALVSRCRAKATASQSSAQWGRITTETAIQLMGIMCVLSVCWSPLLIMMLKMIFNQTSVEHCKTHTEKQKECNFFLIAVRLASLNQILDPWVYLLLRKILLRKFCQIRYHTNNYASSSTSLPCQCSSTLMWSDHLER
# Method: as §3
# [9] = biological target: T4, Human EP4; assay: EP4 agonist activity, CRE-LUC reporter gene in transfected COS-7 cells; type: cell-based
# Method: In brief, human EP4 gene and CRE-LUC reporter gene were transfected into COS-7 cells. The cells were treated with a test compound one day later, and incubated for 3 hr. The cells were washed, a luminescence substrate was added, and the luminescence intensity was measured for the agonist activity.
# [10] = test system: IL-2; assay: Suppressive effect on cytokine production, CD4 positive T cells stimulated with anti-CD3 and anti-CD28 antibody, ELISA; type: cell-based; details: human CD4 positive T cells, anti-CD3/anti-CD28, 24 hr; geometric mean of three volunteers
# Method: (§4) Blood was collected from 3 healthy volunteers, and CD4 positive T cells were prepared. […] In both cases, the test compound was added 30 min before stimulation.
# [11] = test system: TNF-α; assay: as above; type: cell-based; details: human CD4 positive T cells, anti-CD3/anti-CD28, 24 hr; geometric mean of three volunteers
# Method: as §4
# [12] = test system: IP-10; assay: Suppressive effect on cytokine production, whole blood stimulated with lipopolysaccharide, ELISA; type: cell-based; details: human whole blood, indometacin, 48 hr, geometric mean of three volunteers
# [13] = biological target: T6, Mouse EP4 (Mus musculus, UniProt P32240); assay: Receptor affinity, tritium-labeled PGE2 binding to membranes of transfected COS-7 cells
# T6 construct: expressed in transfected cells; host or cells: COS-7
# Method: as §1
# [14] = Plasma pharmacokinetics after intravenous administration to rats; type: in vivo; details: male, rat
# Method: To verify the in vivo metabolic stability of the compound of the present invention, plasma pharmacokinetics was evaluated after intravenous administration to rats. Male rats (6 weeks old, body weight 160 - 180 g) were acclimated for 1 week, and the animals diagnosed healthy were used. A mixture of compound F and compound J of the present invention described in Table 1 (F:J = 52:41), and a mixture of carboxylate forms of compound F and compound J (F:J = 54:34), and compound F (synthesized in Example 9) were dissolved in a small amount of ethanol and physiological saline was added to prepare test compound solutions. The test compound solutions were instantaneously administered intravenously at 1 mL/kg from the femoral vein of non-fasting rats under light ether anesthesia. Venous blood was drawn from the tail vein 5, 15, 30, 45, 60, 90 and 120 min after administration. The blood was mixed with heparin and centrifuged (3000 rpm, 4°C, 15 min) to obtain plasma. The plasma compound concentration was determined by the internal standard method using LC-MS/MS. The determination range by this method was from 0.1 to 100 ng/mL. The compound concentrations obtained from each rat were analyzed in a model-independent way using a pharmacokinetics analysis software WinNonlin (ver.3.3), and average ± standard deviation of 3 animals for each group was obtained.
# [15] = In vitro metabolic stability: β-oxidation reaction in rat liver mitochondria fraction; type: in vitro ADME; details: parent compound after NADPH-independent β-oxidation reaction, 37°C, 30 min, tested as isomer mixtures, average ± SD of 3 experiments
# Method: A mixture of the compound F and compound J of the present invention described in Table 1 (F:J = 52:41, synthesized in Example 14), and a mixture of compounds wherein the tetrazole groups at C-1 of compound F and compound J are respectively substituted by carboxylic acid (referred to as carboxylate form, F:J = 54:34, synthesized in Example 15) were tested.
# First, a mitochondria fraction was prepared from the rat liver according to the following Reference A. Then, in reference to the method of […] et al. described in the following References B and C, an NADPH-independent β oxidation reaction was studied. The reaction was carried out at 37°C for 30 min, and stopped with a methanol solution containing a suitable internal standard substance. Each compound was quantified by the internal standard method using a high performance liquid chromatography mass spectrometry apparatus (LC-MS/MS). The compound residual ratio after metabolic reaction of compounds F, J and each carboxylate form thereof in rat mitochondria fraction is shown in the following Table 2 in average ± standard deviation of 3 experiments. Table 2 Residual Ratio of Parent Compound after β-Oxidation Reaction
# T4 sequence (P35408 whole entry): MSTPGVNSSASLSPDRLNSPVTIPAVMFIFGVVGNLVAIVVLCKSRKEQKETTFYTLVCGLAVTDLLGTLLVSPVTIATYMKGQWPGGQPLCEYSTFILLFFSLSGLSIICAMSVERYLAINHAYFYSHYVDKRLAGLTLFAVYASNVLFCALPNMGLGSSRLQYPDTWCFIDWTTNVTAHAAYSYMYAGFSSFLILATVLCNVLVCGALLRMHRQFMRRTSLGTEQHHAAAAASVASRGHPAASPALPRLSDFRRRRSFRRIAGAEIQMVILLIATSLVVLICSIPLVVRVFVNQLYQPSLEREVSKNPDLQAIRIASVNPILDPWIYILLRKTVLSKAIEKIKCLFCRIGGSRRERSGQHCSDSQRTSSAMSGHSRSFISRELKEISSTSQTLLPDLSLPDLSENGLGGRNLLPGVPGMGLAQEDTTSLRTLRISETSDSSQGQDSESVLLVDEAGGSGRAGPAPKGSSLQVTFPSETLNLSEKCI
# T3 sequence (P43119 whole entry): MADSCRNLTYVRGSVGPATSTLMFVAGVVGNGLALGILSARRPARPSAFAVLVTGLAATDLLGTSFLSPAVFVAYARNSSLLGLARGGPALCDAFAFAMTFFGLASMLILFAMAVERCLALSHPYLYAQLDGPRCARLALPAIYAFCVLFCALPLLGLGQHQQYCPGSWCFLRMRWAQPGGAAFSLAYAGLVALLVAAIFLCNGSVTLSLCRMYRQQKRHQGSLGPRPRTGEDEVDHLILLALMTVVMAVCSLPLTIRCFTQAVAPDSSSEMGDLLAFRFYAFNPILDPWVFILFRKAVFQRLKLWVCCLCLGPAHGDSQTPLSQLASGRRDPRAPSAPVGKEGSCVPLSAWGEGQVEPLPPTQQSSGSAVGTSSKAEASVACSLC
# T1 sequence (P43116 whole entry): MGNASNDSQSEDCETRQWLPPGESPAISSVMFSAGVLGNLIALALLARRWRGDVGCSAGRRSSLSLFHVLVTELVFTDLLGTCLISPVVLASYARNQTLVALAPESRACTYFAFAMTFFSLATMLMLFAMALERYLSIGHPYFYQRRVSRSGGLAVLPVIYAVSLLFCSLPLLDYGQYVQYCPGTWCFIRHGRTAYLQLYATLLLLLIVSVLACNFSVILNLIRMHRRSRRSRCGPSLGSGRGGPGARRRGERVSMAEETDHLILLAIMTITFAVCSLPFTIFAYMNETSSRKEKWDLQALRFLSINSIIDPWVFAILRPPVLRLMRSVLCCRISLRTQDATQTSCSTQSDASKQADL
# T6 sequence (P32240 whole entry): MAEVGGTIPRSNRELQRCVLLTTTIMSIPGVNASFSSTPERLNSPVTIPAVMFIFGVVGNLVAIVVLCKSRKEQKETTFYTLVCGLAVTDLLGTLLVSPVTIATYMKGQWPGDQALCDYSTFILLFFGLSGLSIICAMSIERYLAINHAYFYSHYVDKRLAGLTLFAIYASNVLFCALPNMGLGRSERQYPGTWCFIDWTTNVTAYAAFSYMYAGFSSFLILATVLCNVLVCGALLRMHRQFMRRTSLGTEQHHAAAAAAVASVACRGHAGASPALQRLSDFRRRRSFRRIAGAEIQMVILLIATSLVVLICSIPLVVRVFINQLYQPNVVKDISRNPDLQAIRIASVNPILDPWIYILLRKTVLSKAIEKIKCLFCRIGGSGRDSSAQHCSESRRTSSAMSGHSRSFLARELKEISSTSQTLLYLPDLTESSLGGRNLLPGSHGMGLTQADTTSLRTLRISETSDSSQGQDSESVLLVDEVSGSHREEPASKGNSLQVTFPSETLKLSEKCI
Structure (SMILES),effect on stool score [1],effect on the shortening of the large intestine [1],Ki [2] [nM],IC50 [3] [nM],Ki [4] [nM],Ki [5] [nM],effect on heart rate [6],maximum decrease ratio of mean blood pressure [6] [%],Ki [7] [nM],Ki [8] [nM],EC50 [9] [nM],IC50 [10] [nM],IC50 [11] [nM],IC50 [12] [nM],Ki [13] [nM],"half-life ([14]; iv, 50 ug/kg) [h]","half-life ([14]; rats, intravenous, summary of Table 3) [h]",Residual ratio [15] [%],affinity for binding to human EP4 higher than that to human IP ([7]; ratio of Ki values) [fold]
"CC#CCC(C)[C@H](O)/C=C/[C@@H]1[C@H]2c3cccc(CCCC(=O)O)c3O[C@H]2C[C@H]1O (mixture of isomers) [BPS, beraprost sodium, reference compound]","not effective, but rather showed a tendency toward aggravation of the stool score",no effect on the shortening of the large intestine,4990,36,942,160,on the increase and remained high even after 10 min,38,6150,946,> 1000,–,–,–,–,–,–,–,–
"Cc1cccc([C@H](C)[C@H](O)/C=C/[C@@H]2[C@@H]3[C@H](C[C@H]2O)O/C(=C\CCCc2nnn[nH]2)C3(F)F)c1 [Compound J, 4-[(Z)-(1S,5R,6R,7R)-6-[(1E,3R,4S)-3-hydroxy-4-(m-tolyl)-1-pentenyl]-7-hydroxy-2-oxa-4,4-difluoro-bicyclo[3.3.0]octan-3-ylidene]-1-(tetrazol-5-yl)butane]",–,–,5400,2720,4600,3400,–,–,83,1500,440,64,89.5,102,590,1.28 ± 0.317,1 to 2,90.1±6.9,40
"CCCCC[C@H](O)/C=C/[C@H]1[C@H](O)CC(=O)[C@@H]1C/C=C\CCCC(=O)O [PGE2, reference compound]",–,–,–,–,2.9,–,–,–,–,–,–,0.062,–,–,–,–,–,–,–
